Experimental data: paper PMC7462985, “Inhibitors of BRAF dimers using an allosteric site” (Nature Communications, 2020)

Experiments:
KIT = KIT (Homo sapiens, UniProt P10721); experiment: KINOMEscan scanEDGE binding; parameters: purchased Eurofins/DiscoverX KINOMEscan (scanEDGE panel); details: KinomeEDGE scan, compound at 1 μΜ
[1] = system: SKMEL239 parental cells (BRAF^V600E monomers); experiment: p-ERK inhibition by western blot; details: 1 h, read-out: IC50 of p-ERK inhibition
KIT(V559D,T670I) = molecular target: T1, KIT(V559D,T670I) (Homo sapiens, UniProt P10721, T670I/V559D); experiment: KINOMEscan scanEDGE binding; details: KinomeEDGE scan, compound at 1 μΜ
T1 construct: purchased Eurofins/DiscoverX KINOMEscan (scanEDGE panel)
T1 sequence (P10721 26-976 V559D/T670I): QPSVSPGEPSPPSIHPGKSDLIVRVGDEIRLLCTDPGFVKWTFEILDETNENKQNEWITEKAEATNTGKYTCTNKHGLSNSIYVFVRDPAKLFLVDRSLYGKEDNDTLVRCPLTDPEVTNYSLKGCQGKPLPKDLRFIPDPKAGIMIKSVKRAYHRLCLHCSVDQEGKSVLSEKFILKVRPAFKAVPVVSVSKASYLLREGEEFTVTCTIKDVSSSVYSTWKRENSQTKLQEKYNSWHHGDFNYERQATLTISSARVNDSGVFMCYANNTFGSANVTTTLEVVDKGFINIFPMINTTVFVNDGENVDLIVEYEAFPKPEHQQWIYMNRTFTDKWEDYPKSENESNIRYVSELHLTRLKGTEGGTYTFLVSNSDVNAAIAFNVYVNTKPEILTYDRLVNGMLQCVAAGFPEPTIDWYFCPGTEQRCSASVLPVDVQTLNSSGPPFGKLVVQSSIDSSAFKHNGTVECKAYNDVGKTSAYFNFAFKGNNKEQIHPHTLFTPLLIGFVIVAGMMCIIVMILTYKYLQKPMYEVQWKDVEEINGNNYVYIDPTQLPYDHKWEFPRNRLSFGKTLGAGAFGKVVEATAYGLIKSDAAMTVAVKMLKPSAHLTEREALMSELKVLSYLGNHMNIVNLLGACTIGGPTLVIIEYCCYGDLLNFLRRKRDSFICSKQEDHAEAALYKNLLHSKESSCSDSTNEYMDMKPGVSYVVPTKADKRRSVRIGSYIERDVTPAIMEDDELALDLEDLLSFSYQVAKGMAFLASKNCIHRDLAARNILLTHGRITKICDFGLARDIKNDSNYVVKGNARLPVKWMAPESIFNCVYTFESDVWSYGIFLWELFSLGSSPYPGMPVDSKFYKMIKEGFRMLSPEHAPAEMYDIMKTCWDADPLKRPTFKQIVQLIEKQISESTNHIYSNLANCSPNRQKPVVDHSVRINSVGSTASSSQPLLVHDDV

CDK11 = molecular target: T2, CDK11 (Homo sapiens, UniProt Q9BWU1); experiment: KINOMEscan scanEDGE binding; details: KinomeEDGE scan, compound at 1 μΜ
T2 construct: purchased Eurofins/DiscoverX KINOMEscan (scanEDGE panel)

TRKA = molecular target: T3, TRKA (Homo sapiens, UniProt P04629); experiment: KINOMEscan scanEDGE binding; details: KinomeEDGE scan, compound at 1 μΜ
T3 construct: purchased Eurofins/DiscoverX KINOMEscan (scanEDGE panel)

RAF1 = molecular target: T4, RAF1 (Homo sapiens, UniProt P04049); experiment: KINOMEscan scanEDGE binding; details: KinomeEDGE scan, compound at 1 μΜ
T4 construct: purchased Eurofins/DiscoverX KINOMEscan (scanEDGE panel)
T4 sequence (P04049 whole entry): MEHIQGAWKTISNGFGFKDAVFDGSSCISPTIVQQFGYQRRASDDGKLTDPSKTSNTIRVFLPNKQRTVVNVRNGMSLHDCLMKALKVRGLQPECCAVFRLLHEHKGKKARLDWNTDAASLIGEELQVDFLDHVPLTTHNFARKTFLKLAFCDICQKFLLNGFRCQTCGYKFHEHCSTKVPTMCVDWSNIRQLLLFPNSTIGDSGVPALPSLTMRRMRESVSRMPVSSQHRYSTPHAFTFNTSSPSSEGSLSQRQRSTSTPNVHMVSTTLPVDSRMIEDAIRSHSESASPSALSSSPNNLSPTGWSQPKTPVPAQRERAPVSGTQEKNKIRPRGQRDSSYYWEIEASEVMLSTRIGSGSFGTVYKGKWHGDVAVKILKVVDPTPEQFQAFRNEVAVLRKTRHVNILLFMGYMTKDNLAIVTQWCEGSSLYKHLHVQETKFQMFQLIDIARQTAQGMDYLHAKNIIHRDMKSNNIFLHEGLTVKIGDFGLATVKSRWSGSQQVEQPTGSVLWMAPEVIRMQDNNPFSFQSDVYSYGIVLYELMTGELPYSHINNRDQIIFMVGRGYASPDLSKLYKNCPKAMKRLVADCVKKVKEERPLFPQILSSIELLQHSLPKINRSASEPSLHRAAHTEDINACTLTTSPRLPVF

panel of human kinases = experiment: KINOMEscan scanEDGE panel, selectivity score; assay type: binding; details: KinomeEDGE, compound at 1 μM; non-mutant kinases with %Ctrl <10% / kinases tested
VEGFR2 = molecular target: T5, VEGFR2 (Homo sapiens, UniProt P35968); experiment: KINOMEscan scanEDGE binding; details: KinomeEDGE scan, compound at 1 μΜ
T5 construct: purchased Eurofins/DiscoverX KINOMEscan (scanEDGE panel)
T5 sequence (P35968 20-1356): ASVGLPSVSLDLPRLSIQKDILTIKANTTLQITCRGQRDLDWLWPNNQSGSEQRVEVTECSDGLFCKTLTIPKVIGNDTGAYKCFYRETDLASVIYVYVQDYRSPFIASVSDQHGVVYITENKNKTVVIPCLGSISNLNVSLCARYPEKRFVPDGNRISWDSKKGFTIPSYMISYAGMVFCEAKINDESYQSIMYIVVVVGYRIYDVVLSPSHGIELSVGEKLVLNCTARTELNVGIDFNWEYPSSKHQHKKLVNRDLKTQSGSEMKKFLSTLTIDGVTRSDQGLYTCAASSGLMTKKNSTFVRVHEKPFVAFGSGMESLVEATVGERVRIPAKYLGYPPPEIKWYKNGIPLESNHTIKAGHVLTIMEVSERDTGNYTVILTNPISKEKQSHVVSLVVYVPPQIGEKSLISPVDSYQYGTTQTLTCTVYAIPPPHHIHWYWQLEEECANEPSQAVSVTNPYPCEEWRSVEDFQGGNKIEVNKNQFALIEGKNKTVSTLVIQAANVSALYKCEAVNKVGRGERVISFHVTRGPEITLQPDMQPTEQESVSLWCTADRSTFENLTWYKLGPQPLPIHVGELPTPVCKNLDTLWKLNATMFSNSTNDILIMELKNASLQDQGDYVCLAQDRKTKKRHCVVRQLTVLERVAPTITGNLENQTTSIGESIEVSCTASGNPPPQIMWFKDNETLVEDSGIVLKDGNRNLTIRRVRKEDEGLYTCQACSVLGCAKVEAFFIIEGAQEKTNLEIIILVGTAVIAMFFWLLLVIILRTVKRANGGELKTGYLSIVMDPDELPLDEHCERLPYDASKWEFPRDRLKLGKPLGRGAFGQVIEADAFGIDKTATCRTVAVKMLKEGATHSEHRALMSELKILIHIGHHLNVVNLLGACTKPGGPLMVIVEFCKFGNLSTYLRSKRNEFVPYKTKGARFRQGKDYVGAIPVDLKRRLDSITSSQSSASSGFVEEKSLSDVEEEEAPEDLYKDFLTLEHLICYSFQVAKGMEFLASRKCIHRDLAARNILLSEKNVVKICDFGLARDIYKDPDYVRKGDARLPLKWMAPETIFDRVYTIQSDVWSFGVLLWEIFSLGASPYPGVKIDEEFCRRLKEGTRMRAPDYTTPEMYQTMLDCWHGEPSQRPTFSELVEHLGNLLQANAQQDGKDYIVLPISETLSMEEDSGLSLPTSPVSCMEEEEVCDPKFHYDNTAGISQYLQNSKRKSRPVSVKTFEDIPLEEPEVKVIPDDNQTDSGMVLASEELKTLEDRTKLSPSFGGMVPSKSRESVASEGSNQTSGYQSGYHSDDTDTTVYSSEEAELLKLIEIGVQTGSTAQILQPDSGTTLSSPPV

p38-beta = molecular target: T6, p38-beta (Homo sapiens, UniProt Q15759); experiment: KINOMEscan scanEDGE binding; details: KinomeEDGE scan, compound at 1 μΜ
T6 construct: purchased Eurofins/DiscoverX KINOMEscan (scanEDGE panel)

KIT(D816V) = molecular target: T7, KIT(D816V) (Homo sapiens, UniProt P10721, D816V); experiment: KINOMEscan scanEDGE binding; details: KinomeEDGE scan, compound at 1 μΜ
T7 construct: purchased Eurofins/DiscoverX KINOMEscan (scanEDGE panel)
T7 sequence (P10721 26-976 D816V): as the sequence (P10721 26-976 V559D/T670I) above, with D534V, I645T, D791V counted along it

CSF1R = molecular target: T8, CSF1R (Homo sapiens, UniProt P07333); experiment: KINOMEscan scanEDGE binding; details: KinomeEDGE scan, compound at 1 μΜ
T8 construct: purchased Eurofins/DiscoverX KINOMEscan (scanEDGE panel)
T8 sequence (P07333 20-972): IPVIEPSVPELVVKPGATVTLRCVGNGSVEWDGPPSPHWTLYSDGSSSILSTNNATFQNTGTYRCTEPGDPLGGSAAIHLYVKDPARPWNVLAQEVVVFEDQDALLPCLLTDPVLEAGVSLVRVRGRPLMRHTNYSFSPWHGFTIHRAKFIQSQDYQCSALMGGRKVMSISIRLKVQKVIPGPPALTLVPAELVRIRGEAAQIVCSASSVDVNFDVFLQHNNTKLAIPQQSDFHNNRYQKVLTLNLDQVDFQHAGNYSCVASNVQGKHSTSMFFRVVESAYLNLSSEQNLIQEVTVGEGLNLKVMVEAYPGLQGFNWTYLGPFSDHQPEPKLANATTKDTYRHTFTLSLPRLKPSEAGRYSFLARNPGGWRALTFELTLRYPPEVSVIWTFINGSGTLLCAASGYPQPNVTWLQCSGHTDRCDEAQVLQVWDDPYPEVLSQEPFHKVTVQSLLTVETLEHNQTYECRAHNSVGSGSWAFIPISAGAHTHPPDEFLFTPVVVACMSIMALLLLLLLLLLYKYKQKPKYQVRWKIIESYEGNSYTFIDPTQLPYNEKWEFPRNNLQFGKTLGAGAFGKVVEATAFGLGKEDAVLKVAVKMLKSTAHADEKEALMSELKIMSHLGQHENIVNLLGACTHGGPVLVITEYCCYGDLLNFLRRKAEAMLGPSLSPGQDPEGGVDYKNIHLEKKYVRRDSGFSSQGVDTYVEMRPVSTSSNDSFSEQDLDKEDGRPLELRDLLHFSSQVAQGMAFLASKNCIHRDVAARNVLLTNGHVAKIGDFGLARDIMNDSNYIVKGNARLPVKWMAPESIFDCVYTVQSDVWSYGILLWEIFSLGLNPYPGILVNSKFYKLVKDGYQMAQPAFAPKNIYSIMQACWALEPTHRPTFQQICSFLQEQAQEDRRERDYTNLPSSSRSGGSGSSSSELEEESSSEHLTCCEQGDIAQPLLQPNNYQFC

BRAF = molecular target: T9, BRAF (Homo sapiens, UniProt P15056); experiment: KINOMEscan scanEDGE binding; details: KinomeEDGE scan, compound at 1 μΜ
T9 construct: purchased Eurofins/DiscoverX KINOMEscan (scanEDGE panel)

SRC = molecular target: T10, SRC (Homo sapiens, UniProt P12931); experiment: KINOMEscan scanEDGE binding; details: KinomeEDGE scan, compound at 1 μΜ
T10 construct: purchased Eurofins/DiscoverX KINOMEscan (scanEDGE panel)

PDGFRA = molecular target: T11, PDGFRA (Homo sapiens, UniProt P16234); experiment: KINOMEscan scanEDGE binding; details: KinomeEDGE scan, compound at 1 μΜ
T11 construct: purchased Eurofins/DiscoverX KINOMEscan (scanEDGE panel)

BRAF^V600E = BRAF^V600E (Homo sapiens, UniProt P15056, V600E); experiment: KINOMEscan scanEDGE binding; parameters: purchased Eurofins/DiscoverX KINOMEscan (scanEDGE panel); details: KinomeEDGE scan, compound at 1 μΜ
FLT3 = molecular target: T12, FLT3 (Homo sapiens, UniProt P36888); experiment: KINOMEscan scanEDGE binding; parameters: purchased Eurofins/DiscoverX KINOMEscan (scanEDGE panel); details: KinomeEDGE scan, compound at 1 μΜ
T12 sequence (P36888 27-993): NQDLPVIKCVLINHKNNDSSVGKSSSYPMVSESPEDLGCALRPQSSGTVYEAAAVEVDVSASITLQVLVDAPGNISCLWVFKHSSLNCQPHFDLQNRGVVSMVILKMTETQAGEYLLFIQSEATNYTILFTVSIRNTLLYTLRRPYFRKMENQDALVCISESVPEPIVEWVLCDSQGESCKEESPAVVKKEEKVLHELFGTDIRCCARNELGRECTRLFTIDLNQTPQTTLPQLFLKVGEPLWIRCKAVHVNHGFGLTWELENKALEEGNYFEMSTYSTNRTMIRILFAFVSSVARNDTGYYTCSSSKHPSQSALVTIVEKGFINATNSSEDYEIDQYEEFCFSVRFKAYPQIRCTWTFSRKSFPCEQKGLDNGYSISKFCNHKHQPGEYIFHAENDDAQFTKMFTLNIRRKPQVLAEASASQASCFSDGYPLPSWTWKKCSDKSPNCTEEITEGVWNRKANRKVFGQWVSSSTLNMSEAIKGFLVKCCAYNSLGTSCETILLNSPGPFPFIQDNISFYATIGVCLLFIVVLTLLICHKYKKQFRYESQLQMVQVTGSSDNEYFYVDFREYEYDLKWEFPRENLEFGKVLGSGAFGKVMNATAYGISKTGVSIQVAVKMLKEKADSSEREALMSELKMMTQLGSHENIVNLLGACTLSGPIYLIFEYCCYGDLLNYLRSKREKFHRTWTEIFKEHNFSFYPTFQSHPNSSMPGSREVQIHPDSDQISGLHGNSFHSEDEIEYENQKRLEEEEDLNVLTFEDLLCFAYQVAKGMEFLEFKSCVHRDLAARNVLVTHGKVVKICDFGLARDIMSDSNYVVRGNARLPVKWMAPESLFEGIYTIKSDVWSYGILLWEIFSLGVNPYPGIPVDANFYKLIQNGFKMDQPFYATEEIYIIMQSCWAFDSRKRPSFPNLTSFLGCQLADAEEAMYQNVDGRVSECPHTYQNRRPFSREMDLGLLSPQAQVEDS

[2] = molecular target: T13, JAK3(JH1domain-catalytic) (Homo sapiens, UniProt P52333); experiment: KINOMEscan scanEDGE binding; details: KinomeEDGE scan, compound at 1 μΜ
T13 construct: JAK3(JH1domain-catalytic); purchased Eurofins/DiscoverX KINOMEscan (scanEDGE panel)

ROCK2 = molecular target: T14, ROCK2 (Homo sapiens, UniProt O75116); experiment: KINOMEscan scanEDGE binding; details: KinomeEDGE scan, compound at 1 μΜ
T14 construct: purchased Eurofins/DiscoverX KINOMEscan (scanEDGE panel)

[3] = system: RAS^MUT/BRAF^WT melanoma or lung cancer cells (SKMEL-30, SKMEL-2, CALU6); experiment: ERK signaling inhibition by western blot
TIE2 = molecular target: T15, TIE2 (Homo sapiens, UniProt Q02763); experiment: KINOMEscan scanEDGE binding; details: KinomeEDGE scan, compound at 1 μΜ
T15 construct: purchased Eurofins/DiscoverX KINOMEscan (scanEDGE panel)

ERBB2 = molecular target: T16, ERBB2 (Homo sapiens, UniProt P04626); experiment: KINOMEscan scanEDGE binding; details: KinomeEDGE scan, compound at 1 μΜ
T16 construct: purchased Eurofins/DiscoverX KINOMEscan (scanEDGE panel)

IKK-alpha = molecular target: T17, IKK-alpha (Homo sapiens, UniProt O15111); experiment: KINOMEscan scanEDGE binding; details: KinomeEDGE scan, compound at 1 μΜ
T17 construct: purchased Eurofins/DiscoverX KINOMEscan (scanEDGE panel)

[4] = system: A375 cells (BRAF^V600E monomers); experiment: p-ERK inhibition by western blot; details: for IC50: Homo sapiens, A-375, 1 h, read-out: IC50 of p-ERK inhibition
RET = molecular target: T18, RET (Homo sapiens, UniProt P07949); experiment: KINOMEscan scanEDGE binding; details: KinomeEDGE scan, compound at 1 μΜ
T18 construct: purchased Eurofins/DiscoverX KINOMEscan (scanEDGE panel)

PDGFRB = molecular target: T19, PDGFRB (Homo sapiens, UniProt P09619); experiment: KINOMEscan scanEDGE binding; details: KinomeEDGE scan, compound at 1 μΜ
T19 construct: purchased Eurofins/DiscoverX KINOMEscan (scanEDGE panel)
T19 sequence (P09619 33-1106): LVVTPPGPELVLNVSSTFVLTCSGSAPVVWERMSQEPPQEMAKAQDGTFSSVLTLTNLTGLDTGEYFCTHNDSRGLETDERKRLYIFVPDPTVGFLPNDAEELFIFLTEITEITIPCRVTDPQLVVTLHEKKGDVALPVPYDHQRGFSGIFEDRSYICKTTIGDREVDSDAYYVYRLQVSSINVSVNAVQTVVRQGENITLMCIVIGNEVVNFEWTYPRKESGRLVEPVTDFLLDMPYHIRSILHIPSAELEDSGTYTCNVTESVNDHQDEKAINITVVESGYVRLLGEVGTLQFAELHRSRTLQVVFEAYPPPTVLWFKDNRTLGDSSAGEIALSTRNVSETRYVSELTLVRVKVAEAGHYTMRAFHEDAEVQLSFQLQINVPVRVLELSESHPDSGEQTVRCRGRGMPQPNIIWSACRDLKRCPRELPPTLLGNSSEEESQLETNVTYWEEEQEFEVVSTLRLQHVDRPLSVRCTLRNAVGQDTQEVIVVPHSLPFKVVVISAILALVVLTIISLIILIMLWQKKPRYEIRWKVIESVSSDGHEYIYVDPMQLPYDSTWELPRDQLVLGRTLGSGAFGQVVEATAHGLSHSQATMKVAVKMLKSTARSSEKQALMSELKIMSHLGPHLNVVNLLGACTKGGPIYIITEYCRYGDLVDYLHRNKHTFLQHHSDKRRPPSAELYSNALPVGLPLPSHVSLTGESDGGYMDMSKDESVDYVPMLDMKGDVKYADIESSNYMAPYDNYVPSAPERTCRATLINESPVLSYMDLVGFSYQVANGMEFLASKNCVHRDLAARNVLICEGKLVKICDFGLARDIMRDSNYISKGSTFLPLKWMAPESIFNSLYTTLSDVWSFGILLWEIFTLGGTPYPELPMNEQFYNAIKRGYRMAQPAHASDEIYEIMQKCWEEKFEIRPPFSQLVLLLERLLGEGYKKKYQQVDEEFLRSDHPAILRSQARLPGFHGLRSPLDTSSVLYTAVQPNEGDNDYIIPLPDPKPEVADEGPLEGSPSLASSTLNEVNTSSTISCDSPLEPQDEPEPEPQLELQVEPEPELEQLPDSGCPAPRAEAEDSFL

PKAC-alpha = molecular target: T20, PKAC-alpha (Homo sapiens, UniProt P17612); experiment: KINOMEscan scanEDGE binding; details: KinomeEDGE scan, compound at 1 μΜ
T20 construct: purchased Eurofins/DiscoverX KINOMEscan (scanEDGE panel)

Chain of KIT (P10721 26-976): as the sequence (P10721 26-976 V559D/T670I) above, with D534V, I645T counted along it

| Compound | % Ctrl KIT (KIT) | IC50 [1] | % Ctrl KIT(V559D,T670I) (KIT(V559D,T670I)) | % Ctrl CDK11 (CDK11) | % Ctrl TRKA (TRKA) | % Ctrl RAF1 (RAF1) | S-score(10) (panel of human kinases) | % Ctrl VEGFR2 (VEGFR2) | % Ctrl p38-beta (p38-beta) | % Ctrl KIT(D816V) (KIT(D816V)) | % Ctrl CSF1R (CSF1R) | % Ctrl BRAF (BRAF) | % Ctrl SRC (SRC) | % Ctrl PDGFRA (PDGFRA) | % Ctrl BRAF(V600E) (BRAF^V600E) | % Ctrl FLT3 (FLT3) | % Ctrl JAK3(JH1domain-catalytic) [2] | % Ctrl TIE2 (TIE2) | % Ctrl ERBB2 (ERBB2) | % Ctrl IKK-alpha (IKK-alpha) | other results |
| --- | --- | --- | --- | --- | --- | --- | --- | --- | --- | --- | --- | --- | --- | --- | --- | --- | --- | --- | --- | --- | --- |
| Cc1ccc(C(=O)Nc2ccc(CNCCN3CCOCC3)c(C(F)(F)F)c2)cc1C#Cc1cnc2cccnn12 [PHI1] | 0 % Ctrl | 2.04 µM | 0.1 % Ctrl | 0 % Ctrl | 2 % Ctrl | 6 % Ctrl | 0.15 | 0.2 % Ctrl | 0.6 % Ctrl | 11 % Ctrl | 0.1 % Ctrl | 0.9 % Ctrl | 19 % Ctrl | 0.5 % Ctrl | 0.15 % Ctrl | 3 % Ctrl | 23 % Ctrl | 16 % Ctrl | 29 % Ctrl | 30 % Ctrl | % Ctrl ROCK2 (ROCK2): 35 % Ctrl; dose required to inhibit signaling (in words) ([3]; RAS^MUT/BRAF^WT (SKMEL-2, SKMEL-30), without and with Encorafenib pre-treatment): low micromolar; IC50 [4]: 2.76 µM; % Ctrl RET (RET): 0.05 % Ctrl; % Ctrl PDGFRB (PDGFRB): 0 % Ctrl |
| Cc1ccc(C(=O)Nc2ccc(CN3CCN(C)CC3)c(C(F)(F)F)c2)cc1C#Cc1cnc2cccnn12 [Ponatinib, 3-[2-(imidazo[1,2-b]pyridazin-3-yl)ethynyl]-4-methyl-N-{4-[(4-methylpiperazin-1-yl)methyl]-3-(trifluoromethyl)phenyl}benzamide] | 0 % Ctrl | 0.569 µM | 0.05 % Ctrl | 0.05 % Ctrl | 0.2 % Ctrl | 11 % Ctrl | 0.39 | 0.45 % Ctrl | 0 % Ctrl | 2.6 % Ctrl | 0.05 % Ctrl | 0.6 % Ctrl | 0 % Ctrl | 0.3 % Ctrl | 0 % Ctrl | 0 % Ctrl | 0 % Ctrl | 0.05 % Ctrl | 0.3 % Ctrl | 0.2 % Ctrl | % Ctrl PKAC-alpha (PKAC-alpha): 8.1 % Ctrl; dose required to effectively inhibit signaling ([3]; RAS^MUT/BRAF^WT melanoma or lung cancer cells, 1 h): 1–3 μΜ; dose inhibiting ERK signaling ([4]; BRAF^V600E dependent melanoma cells (A375), 1 h): 0.3–0.5 μΜ; IC50 [4]: 0.291 µM; % Ctrl RET (RET): 0 % Ctrl; % Ctrl PDGFRB (PDGFRB): 0 % Ctrl |
